In PMC8228075, “In Vitro and In Silico Characterization of G-Protein Coupled Receptor (GPCR) Targets of Phlorofucofuroeckol-A and Dieckol” (Marine Drugs, 2021):
Where “and” joins values, the source holds several entries; their conditions need not be identical. Equal entries are not always repeated. Marks after values point to notes of the source that are not given here.

Experiments:
Type in all cases: cell-based
[1] = target: T1, Alpha-2C adrenergic receptor (hα2CAR) (Homo sapiens, UniProt P18825); assay: hα2CAR functional agonist assay (cAMP, HTRF, CHO cells); details: for Agonist Effect: % of control response to 1 µM epinephrine; for EC50: agonist effect, mean ± SD, n = 3
T1 construct: host or cells: CHO cells
T1 sequence (P18825 1-462): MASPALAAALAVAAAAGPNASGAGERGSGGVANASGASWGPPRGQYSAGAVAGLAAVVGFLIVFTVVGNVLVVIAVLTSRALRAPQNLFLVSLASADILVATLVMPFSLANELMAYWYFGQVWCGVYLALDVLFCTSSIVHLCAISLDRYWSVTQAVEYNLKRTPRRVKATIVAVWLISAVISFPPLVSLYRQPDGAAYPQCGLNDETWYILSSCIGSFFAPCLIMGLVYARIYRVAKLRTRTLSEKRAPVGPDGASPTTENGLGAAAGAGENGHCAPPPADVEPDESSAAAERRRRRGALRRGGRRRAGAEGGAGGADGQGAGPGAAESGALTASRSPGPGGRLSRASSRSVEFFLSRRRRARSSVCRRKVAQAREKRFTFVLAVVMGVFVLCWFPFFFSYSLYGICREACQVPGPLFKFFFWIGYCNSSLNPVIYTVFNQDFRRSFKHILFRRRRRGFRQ
Description: (§1) The in-house assay protocol and experimental conditions are reported in our previous reports. The functional effect of dieckol and PFF-A was characterized based on their modulation effect on cytosolic Ca^2+ ion mobilization using a fluorimetric detection method or by measuring their effect on cAMP modulation using homogeneous time-resolved fluorescence (HTRF) detection.
(§2) Functional activity of phlorotannins over hA2AR, hα2CAR, hCB1R, GLP-1R, and h5-HT1BR was determined by measuring their effects on cAMP production by the HTRF detection method using transected cells expressing human cloned receptors.
After 10 min at 37 °C, the cells were lysed and the fluorescence acceptor (D2-labeled cAMP) and fluorescence donor (anti-cAMP antibody labeled with europium cryptate) were added.

[2] = target: T2, Cannabinoid receptor 1 (CB1R) (Homo sapiens, UniProt P21554); assay: hCB1R functional agonist assay (cAMP, HTRF, CHO cells); details: for Agonist Effect: % of control response to 10 nM CP 55940
T2 construct: host or cells: CHO cells
Description: as §1, §2
(§3) The transfected CHO cells were suspended in HBSS buffer (Invitrogen) complemented with 20 mM HEPES (pH 7.4). […] After 30 min of incubation at 37 °C, the cells were lysed and the fluorescence acceptor (D2-labeled cAMP) and fluorescence donor (anti-cAMP antibody labeled with europium cryptate) were added.

[3] = target: T2, Cannabinoid receptor 1 (CB1R); assay: hCB1R functional antagonist assay (cAMP, HTRF, CHO cells); details: CHO, read-out: Antagonist Effect
Description: as §1, §2, §3

[4] = target: T3, Glucagon-like peptide-1 receptor (GLP-1) (Mus musculus, UniProt O35659); assay: GLP-1R functional antagonist assay (cAMP, HTRF, βTC6 cells); details: for Antagonist Effect: % inhibition of control response to 0.3 nM GLP-1(7–37); for IC50: antagonist effect, mean ± SD, n = 3; for inhibition at 12.5 µM / inhibition at 25 µM / inhibition at 100 µM: read-out: Antagonist Effect
T3 construct: mouse GLP-1 receptor-expressed βTC6 cells; host or cells: βTC6 cells
T3 sequence (O35659 22-463): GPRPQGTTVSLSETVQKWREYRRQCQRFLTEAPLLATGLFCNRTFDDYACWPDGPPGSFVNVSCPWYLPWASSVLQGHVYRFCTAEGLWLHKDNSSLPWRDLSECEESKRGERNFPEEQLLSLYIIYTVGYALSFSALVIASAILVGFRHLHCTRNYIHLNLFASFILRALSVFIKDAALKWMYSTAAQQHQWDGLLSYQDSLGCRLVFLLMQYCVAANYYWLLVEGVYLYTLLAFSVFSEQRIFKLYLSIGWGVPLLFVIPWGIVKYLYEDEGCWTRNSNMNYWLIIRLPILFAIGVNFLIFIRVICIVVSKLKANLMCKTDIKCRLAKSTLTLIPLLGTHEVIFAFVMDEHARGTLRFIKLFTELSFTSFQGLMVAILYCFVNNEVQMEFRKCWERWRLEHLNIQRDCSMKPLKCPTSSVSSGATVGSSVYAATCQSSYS
Description: as §1, §2
The HBSS buffer (Invitrogen) complemented with 20 mM HEPES (pH 7.4) and 500 µM IBMX was used to suspend and distribute the βTC6 cells at a density of 1.5x10^4 cells/well. The plate was then incubated for 10 min at RT in the presence of HBSS (basal and stimulated control), the test compound, or the reference agonist and antagonist. […] Following incubation, the cells were lysed and the fluorescence acceptor (D2-labeled cAMP) and fluorescence donor (anti-cAMP antibody labeled with europium cryptate) were added.

[5] = target: T4, Vasopressin 1A receptor (hV1AR) (Homo sapiens, UniProt P37288); assay: hV1AR functional antagonist assay (Ca2+ mobilization, CHO-V1AR cells); details: for Antagonist Effect: % inhibition of control response to 10 nM AVP; for IC50: antagonist effect, mean ± SD, n = 3
T4 construct: host or cells: CHO-V1AR cells
From the text: as §1
Then, fluorescent probe (Fluo4, Invitrogen) mixed with probenecid in HBSS buffer (Invitrogen, Carlsbad, CA, USA) supplemented with 20 mM HEPES, pH 7.4 (Invitrogen) was added to each well, allowing to equilibrate with the cells for 60 min at 37 °C, then 15 min at 22 °C.

[6] = 50 µM, dieckol value flagged as apparent inhibition (at least 25% agonist effect)
[7] = 100 µM, values flagged as apparent inhibition (at least 25% agonist effect)

T4 sequence (P37288 whole entry): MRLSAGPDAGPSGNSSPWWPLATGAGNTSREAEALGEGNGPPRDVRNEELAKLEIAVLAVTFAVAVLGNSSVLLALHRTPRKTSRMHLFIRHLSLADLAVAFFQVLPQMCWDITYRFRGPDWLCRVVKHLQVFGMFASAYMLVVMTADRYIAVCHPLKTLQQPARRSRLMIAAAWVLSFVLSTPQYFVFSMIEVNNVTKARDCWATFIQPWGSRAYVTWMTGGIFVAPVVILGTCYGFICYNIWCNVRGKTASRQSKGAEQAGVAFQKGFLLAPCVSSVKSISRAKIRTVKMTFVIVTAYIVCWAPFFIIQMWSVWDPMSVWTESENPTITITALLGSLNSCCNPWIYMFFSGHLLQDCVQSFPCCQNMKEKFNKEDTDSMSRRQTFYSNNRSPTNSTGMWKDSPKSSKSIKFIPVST
T2 sequence (P21554 whole entry): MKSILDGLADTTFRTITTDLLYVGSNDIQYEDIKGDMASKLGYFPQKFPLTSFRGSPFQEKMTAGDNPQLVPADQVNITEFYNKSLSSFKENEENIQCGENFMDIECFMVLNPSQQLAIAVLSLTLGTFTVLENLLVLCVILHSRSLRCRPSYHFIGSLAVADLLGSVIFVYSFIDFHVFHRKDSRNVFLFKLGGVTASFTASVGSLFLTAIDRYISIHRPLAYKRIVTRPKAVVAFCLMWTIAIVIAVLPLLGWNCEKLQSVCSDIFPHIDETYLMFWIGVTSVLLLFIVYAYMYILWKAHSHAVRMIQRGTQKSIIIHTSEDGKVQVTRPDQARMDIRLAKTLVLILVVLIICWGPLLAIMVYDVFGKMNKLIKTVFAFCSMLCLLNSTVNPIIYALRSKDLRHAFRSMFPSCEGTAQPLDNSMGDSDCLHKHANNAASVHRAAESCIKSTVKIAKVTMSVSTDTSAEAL

| SMILES | Agonist Effect ([1]; 100 µM) [%] | EC50 [1] [µM] | Agonist Effect ([2]; 100 µM) [%] | inhibition at 100 µM [3] [%] | Antagonist Effect ([4]; 25 µM) [%] | Antagonist Effect ([4]; 50 µM) [%] | IC50 [4] [µM] | inhibition at 12.5 µM [4] [%] | inhibition at 25 µM [4] [%] | inhibition at 100 µM [4] [%] | Antagonist Effect [5, 6] | Antagonist Effect [5, 7] | IC50 [5] [µM] | inhibition at 100 µM ([5]; read-out: Antagonist Effect) [%] | inhibition at 150 µM ([5]; read-out: Antagonist Effect) [%] | also measured |
| --- | --- | --- | --- | --- | --- | --- | --- | --- | --- | --- | --- | --- | --- | --- | --- | --- |
| Oc1cc(O)cc(Oc2c(O)cc(O)c3c2Oc2c(O)cc(Oc4c(O)cc(Oc5c(O)cc(O)c6c5Oc5c(O)cc(O)cc5O6)cc4O)cc2O3)c1 [Dieckol, dieckol] | 52.4 ± 4.24 | 98.8 ± 7.71 | −23.3 ± 12.09 | 159 ± 17.8 | 21.23 ± 7.31 | 53.80 ± 3.12 | 47.2 ± 2.46 | 17.9 ± 6.32 | 21.2 | 101 ± 8.2 | 41.53 ± 7.39 ^c % | 57.77 ± 0.32 ^b % and 57.77 ± 0.32 ^c % | 82.7 ± 8.73 | 57.77 ± 0.32 | 68.8 ± 0.85 | Agonist Effect ([1]; 150 µM): 73.0 ± 6.42%; Agonist Effect ([1]; 200 µM): 74.77 ± 6.60%; Antagonist Effect ([4]; 100 µM): 101.0 ± 8.20% |
| Oc1cc(O)cc(Oc2c(O)cc(O)c3c2Oc2c(O)cc4oc5c(Oc6cc(O)cc(O)c6)c(O)cc(O)c5c4c2O3)c1 [PFF-A, phlorofucofuroeckol-A] | 83.8 ± 0.07 | 23.7 ± 3.32 | 113.8 ± 3.68 | 21.4 ± 0.49 | 57.37 ± 1.15 | 83.87 ± 2.03 | 21.6 ± 2.16 | 25.6 ± 13.1 | 57.4 | 106 ± 1.27 | 52.80 ± 8.09% | 56.90 ± 5.37 ^c % | 42.25 ± 0.41 | 56.9 ± 5.37 | 56.1 ± 4.72 | Agonist Effect ([1]; 12.5 µM): 22.03 ± 6.61%; Agonist Effect ([1]; 25 µM): 55% and 55.0 ± 9.13%; Agonist Effect ([1]; 50 µM): 62.27 ± 6.53%; Agonist Effect ([2]; 12.5 µM): 46.7% and 46.7 ± 6.22%; Agonist Effect ([2]; 25 µM): 80.3% and 80.3 ± 4.10%; Agonist Effect ([2]; 50 µM): 96.45% and 96.45 ± 5.02%; EC50 ([2]; agonist effect, mean ± SD, n = 3): 13.4 ± 2.03 µM; potency relative to dieckol ([4]; from IC50 values, GLP-1R antagonist effect): two-fold higher; Antagonist Effect ([5]; 100 µM, values flagged as apparent inhibition (at least 25% agonist effect), listed as Phlorofucofuroeckol-A): 56.90 ± 5.37 ^b %; inhibition at 25 µM ([5]; read-out: Antagonist Effect): 35.7 ± 3.88% |
